According to patent US20220324835A1 (Nurix Therapeutics, Inc., priority 2018, published 2022):

What was measured:
[1] = biological target: T1, Cbl-b (Homo sapiens, UniProt Q13191); assay: Cbl-b activity assay (Cbl-b inhibition assay), TR-FRET of Cbl-b interaction with UbcH5B-Ub; type: biochemical
Method in brief: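 UbcH5B (C85K) conjugated to N-terminally Bodipy-Fluorescein-labeled ubiquitin served as the fluorescent partner. After compound preincubation, Src kinase (60 nM) with 1 mM ATP and 5 mM MgCl2 (final) was added for 1.5 h, followed by a further 1 h incubation. Some values were obtained with 50 mM NaCl and 30 nM Src.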

[2] = biological target: Cbl-b (residues 36-427) (Homo sapiens, UniProt Q13191); assay: Cbl-b binding assay (SPR, Biacore T200); settings: 20° C., 1:1 binding model
Description: SPR data was collected on a Biacore T200 (GE Healthcare) using a NeutrAvidin (Invitrogen) capture surface that was generated on a polycarboxylate hydrogel sensor chip of medium charge density (XanTec Bioanalytics GmbH) at 20° C. The surface was prepared using 20 mM HEPES, pH 7.5, 100 mM NaCl, 0.5 mM TCEP, 0.01% Triton X-100 as the immobilization buffer. Neutravidin was coupled to the sensor chip through EDC/NHS amine coupling. All steps were performed using a flow rate of 10 μl/min. First, the chip was preconditioned with a 3-min injection of 1 M NaCl, 0.1 M Borate followed by a 10-min equilibration in immobilization buffer. The surface was activated by a 5-min injection of 100 mM EDC/50 mM NHS. Next, 250 μg/mL NeutrAvidin buffered in 10 mM sodium acetate buffer, pH 5.0 was injected over the surface for 2 min. The surface was deactivated with 1 M Tris, pH 8.5 for 7 min then re-equilibrated in immobilization buffer for 7 min. […] Flow cell 1 served as a reference surface and was prepared without protein. All binding measurements were made in 20 mM HEPES, pH 7.5, 100 mM NaCl, 0.5 mM TCEP, 0.01% Triton X-100, 2% DMSO (referred as assay buffer) at 20° C. Compounds, prepared in assay buffer, were diluted from atop concentration of either 100 μM or 50 μM using either a 2- or 3-fold dilution scheme containing 8 or 10 points. Samples were injected for 50 s at 50 μl/min. Dissociation time varied from 90-180 s, depending on anticipated potency. The surface was regenerated by injection of 0.3 M NaCl, prepared in assay buffer for 20 s at 10 μl/min. Positive and negative control samples were run between each compound to monitor surface integrity.
Column marked with an asterisk (*) were tested as described above with assay buffer containing 50 mM NaCl instead of 100 mM NaCl and 30 nM Src kinase instead of 60 nM Src kinase. The resulting data for the Cbl-b binding assay was solvent corrected and double referenced prior to analysis. All data were globally fit to a steady-state affinity and kinetic binding model where applicable). Fit parameters were derived from a 1:1 binding model using the Biacore T200 Evaluation Software V2.0 (GE Healthcare) (Table 2).

[3] = biological target: T1, Cbl-b; assay: Cbl-b inhibition assay (Cbl-b activity assay, FRET, Biological Example 1; 100 mM NaCl, 60 nM Src kinase); type: biochemical; settings: upper bound stated in text lists; read-out: IC50 values in the Cbl-b inhibition assay of Biological Example 1
Method in brief: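 Steps: Src kinase phosphorylates N-terminal biotinylated Avi-tagged Cbl-b; phosphorylated Cbl-b binds Bodipy-fluorescein ubiquitin-loaded UbcH5B; streptavidin-terbium on Cbl-b sits close to the fluorescein label, producing FRET. Inhibitors block UbcH5B-Ub binding.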

[4] = test system: T-cell; assay: IL-2 secretion from T-cells co-stimulated with anti-CD3 and anti-CD28 antibody (Biological Example 2); type: cell-based, human; settings: Homo sapiens, T-cell, read-out: IL-2 secretion Anti-CD3/Anti-CD28 stimulation; for fold induction at 0.3 µM: 0.3 μM Cbl-b inhibitor; for fold induction at 1 µM: 1 μM Cbl-b inhibitor
Method in brief: (§1)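 T-cells were stimulated with anti-CD3 antibody alone or with anti-CD28 antibody, in the presence or absence of Cbl-b inhibitor. IL-2 secretion or CD25 surface staining was measured, and values expressed as fold over the uninhibited baseline […].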

[5] = test system: T-cell; assay: IL-2 secretion from T-cells stimulated with anti-CD3 antibody alone (Biological Example 2); type: cell-based, human; settings: T-cell, read-out: IL-2 secretion Anti-CD3 stimulation; for fold induction at 1 µM: 1 μM Cbl-b inhibitor
[6] = test system: T-cell; assay: CD25 cell surface staining on T-cells co-stimulated with anti-CD3 and anti-CD28 antibody (Biological Example 2); type: cell-based, human; settings: Homo sapiens, T-cell, read-out: CD25 staining Anti-CD3/Anti-CD28 stimulation; for fold induction at 0.3 µM: 0.3 μM Cbl-b inhibitor; for fold induction at 1 µM: 1 μM Cbl-b inhibitor
Method in brief: as §1

[7] = test system: T-cell; assay: CD25 cell surface staining on T-cells stimulated with anti-CD3 antibody alone (Biological Example 2); type: cell-based, human; settings: T-cell, read-out: CD25 staining Anti-CD3 stimulation; for fold induction at 1 µM: 1 μM Cbl-b inhibitor
[8] = * assay buffer containing 50 mM NaCl instead of 100 mM NaCl and 30 nM Src kinase instead of 60 nM, read-out: Cbl-b activity IC50 (μM)*
[9] = assay buffer with 100 mM NaCl, 60 nM Src kinase, read-out: Cbl-b activity IC50
[10] = fold change over baseline (anti-CD3/anti-CD28 stimulated T-cells without inhibitor)
[11] = Homo sapiens, fold change over baseline (anti-CD3/anti-CD28 stimulated T-cells without inhibitor)
[12] = fold change over baseline, primary human total T-cells
[13] = fold change over baseline, 4 μM Cbl-b inhibitor, primary human total T-cells
[14] = fold change over baseline, 8 μM Cbl-b inhibitor, primary human total T-cells

T1 sequence (Q13191 36-427): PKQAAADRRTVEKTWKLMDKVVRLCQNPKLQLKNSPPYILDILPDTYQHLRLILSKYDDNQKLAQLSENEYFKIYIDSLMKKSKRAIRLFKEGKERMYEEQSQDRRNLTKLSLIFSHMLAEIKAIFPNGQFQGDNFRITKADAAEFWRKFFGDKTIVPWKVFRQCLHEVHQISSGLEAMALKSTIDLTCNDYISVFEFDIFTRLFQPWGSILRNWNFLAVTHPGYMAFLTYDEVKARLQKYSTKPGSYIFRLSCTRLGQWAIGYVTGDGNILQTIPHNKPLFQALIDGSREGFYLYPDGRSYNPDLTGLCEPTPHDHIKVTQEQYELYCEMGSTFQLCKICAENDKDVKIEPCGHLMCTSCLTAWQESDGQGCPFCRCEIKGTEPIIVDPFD
Sequence of Cbl-b (residues 36-427) (Q13191 36-427): as above

Row | Structure (SMILES) | Kd [2] [nM] | IC50 [1, 9] [µM] | IC50 [3] [nM] | fold induction at 0.3 µM [4, 10] | fold induction at 1 µM [4, 10] | fold induction at 1 µM [5, 11] | fold induction at 0.3 µM [6, 10] | fold induction at 1 µM [6, 10] | fold induction at 1 µM [7, 11] | other results
1 | CCC(Sc1nncn1C)c1cccc(NC(=O)c2cc3ccccc3cn2)c1 (stereo not shown) [Compound 137, N-[3-[1-[(4-methyl-1,2,4-triazol-3-yl)sulfanyl]propyl]phenyl]isoquinoline-3-carboxamide] | 3000 to 10000 | – | – | – | – | – | – | – | – | IC50 [1, 8]: 3 to 10 µM
2 | CNC(=O)COc1cccc2nc(C(=O)Nc3cccc([C@H](C)Sc4nncn4C)c3)ccc12 [Compound 310, (S)-N-(3-(1-((4-methyl-4H-1,2,4-triazol-3-yl)thio)ethyl)phenyl)-5-(2-(methylamino)-2-oxoethoxy)quinoline-2-carboxamide] | 301 to 1000 | 0.301 to 1 | – | – | – | – | – | – | – | –
3 | C[C@H](Sc1nncn1C)c1cccc(NC(=O)c2cc3cc(OCC(=O)O)ccc3cn2)c1 [Compound 305, (S)-2-((3-((3-(1-((4-methyl-4H-1,2,4-triazol-3-yl)thio)ethyl)phenyl)-carbamoyl)isoquinolin-6-yl)oxy)acetic acid] | > 10000 | 0.301 to 1 | – | – | – | – | – | – | – | –
4 | COCC(Sc1nncn1C)c1cccc(NC(=O)c2cccc(C(F)(F)F)n2)c1 (stereo not shown) [Compound 133, N-[3-[2-methoxy-1-[(4-methyl-1,2,4-triazol-3-yl)sulfanyl]ethyl]phenyl]-6-(trifluoromethyl)pyridine-2-carboxamide] | 3000 to 10000 | – | – | – | – | – | – | – | – | IC50 [1, 8]: 3 to 10 µM
5 | C[C@@H](c1cccc(N2Cc3c(cccc3C(F)(F)F)C2=O)c1)[C@@H](F)c1nncn1C (single isomer, unassigned) [Compound 474a] | 100 to 300 | < 0.1 | – | – | – | – | – | – | – | –
6 | COC1CCCN(Cc2cc3c(c(C(F)(F)F)c2)CN(c2cccc(C4(Cc5nncn5C)COC4)c2)C3=O)C1 (stereo not shown) [Example 637, 6-((3-methoxypiperidin-1-yl)methyl)-2-(3-(3-((4-methyl-4H-1,2,4-triazol-3-yl)methyl)oxetan-3-yl)phenyl)-4-(trifluoromethyl)isoindolin-1-one] | – | < 0.1 | ≤ 100 | > 7.5 | > 7.5 | > 0.201 | 1.31 to 1.5 | 1.51 to 1.75 | > 1 | –
7 | C[C@H](Cc1nncn1C)c1cc(C2CC2)nc(N2Cc3c(cccc3C(F)(F)F)C2=O)c1 [Example 680, (R)-2-(6-cyclopropyl-4-(1-(4-methyl-4H-1,2,4-triazol-3-yl)propan-2-yl)pyridin-2-yl)-4-(trifluoromethyl)isoindolin-1-one] | – | < 0.1 | ≤ 100 | 1.01 to 2.5 | 2.51 to 5 | 0.101 to 0.15 | 1.01 to 1.3 | 1.01 to 1.3 | 0.801 to 1 | –
8 | Cn1cnnc1CC1(c2cccc(N3Cc4c(cc(C5=CCOC5)cc4C(F)(F)F)C3=O)c2)COC1 [Example 612, 6-(2,5-dihydrofuran-3-yl)-2-(3-(3-((4-methyl-4H-1,2,4-triazol-3-yl)methyl)oxetan-3-yl)phenyl)-4-(trifluoromethyl)isoindolin-1-one] | – | < 0.1 | ≤ 100 | 2.51 to 5 | 2.51 to 5 | 0.101 to 0.15 | 1.01 to 1.3 | 1.31 to 1.5 | 0.801 to 1 | –
9 | C[C@H](Sc1nncn1C)c1cccc(NC(=O)c2cc(C3(O)COC3)cc(C(F)(F)F)n2)c1 [Compound 84, (S)-4-(3-hydroxyoxetan-3-yl)-N-(3-(1-((4-methyl-4H-1,2,4-triazol-3-yl)thio)ethyl)phenyl)-6-(trifluoromethyl)picolinamide] | – | 0.301 to 1 | ≤ 1000 | – | – | – | – | – | – | fold induction at 0.3 µM [4, 12]: < 1; fold induction at 1 µM [4, 12]: < 1; fold induction at 4 µM [4, 13]: < 1; fold induction at 1 µM [5, 12]: < 0.05; fold induction at 8 µM [5, 14]: < 0.05; fold induction at 0.3 µM [6, 12]: < 1; fold induction at 1 µM [6, 12]: 1.01 to 1.3; fold induction at 4 µM [6, 13]: 1.01 to 1.3; fold induction at 1 µM [7, 12]: < 0.6; fold induction at 8 µM [7, 14]: 0.601 to 0.8
10 | CN1CC2CC(C1)N2c1cc2c(c(C(F)(F)F)c1)CN(c1cccc([C@@](C)(F)C(F)(F)c3nncn3C)c1)C2=O [Example 566, 6-(3-Methyl-3,6-diazabicyclo[3.1.1]heptan-6-yl)-2-(3-((R)-1,1,2-trifluoro-1-(4-methyl-4H-1,2,4-triazol-3-yl)propan-2-yl)phenyl)-4-(trifluoromethyl)isoindolin-1-one] | – | < 0.1 | ≤ 100 | 5 to 7.5 | > 7.5 | 0.101 to 0.15 | 1.31 to 1.5 | 1.51 to 1.75 | > 1 | –
11 | Cc1cc(C(=O)Nc2cccc(C3([C@@H](F)c4nncn4C)COC3)c2)nc(C2CC2)n1 [Example 669b, (R)-2-cyclopropyl-N-(3-(3-(fluoro(4-methyl-4H-1,2,4-triazol-3-yl)methyl)oxetan-3-yl)phenyl)-6-methylpyrimidine-4-carboxamide] | – | < 0.1 | ≤ 100 | 2.51 to 5 | > 7.5 | > 0.201 | 1.01 to 1.3 | 1.31 to 1.5 | > 1 | –
12 | COC1CCN(Cc2cc3c(c(C(F)(F)F)c2)CN(c2cccc(C4(Cc5nncn5C)COC4)c2)C3=O)CC1 [Example 632, 6-((4-methoxypiperidin-1-yl)methyl)-2-(3-(3-((4-methyl-4H-1,2,4-triazol-3-yl)methyl)oxetan-3-yl)phenyl)-4-(trifluoromethyl)isoindolin-1-one] | – | < 0.1 | ≤ 100 | > 7.5 | > 7.5 | > 0.201 | 1.31 to 1.5 | 1.51 to 1.75 | > 1 | –
